Source: patent US8080575B2, “Gamma-lactam compounds for promoting bone growth” (Osteogenex Inc., priority 2008, dated 2011)

How the values were obtained:
[1] = system: C57BL/6 mice; test: Trabecular bone volume by micro-CT analysis on the proximal tibia in mice treated daily i.p. for 30 days; format: in vivo; conditions: four month old male C57BL/6 mice
Method: (§1) Four month old male C57BL/6 mice were treated daily with saline vehicle or the sclerostin inhibitor of Formula Ib:
(§2) [drawing 9] at low, mid, or high doses (via i.p) for 30 days. Study endpoints included a biochemical marker of bone formation, osteocalcin measured by EIA Elisa, and measurement of trabecular bone volume by mico-CT analysis on the proximal tibia.

[2] = system: C57BL/6 mice; test: Serum osteocalcin (biochemical marker of bone formation) measured by EIA Elisa in mice treated daily i.p. for 30 days; format: in vivo; conditions: four month old male C57BL/6 mice, fraction
Method: as §1, §2

O=C1CCCN1c1ccccc1O [Formula Ib]
percent change in tibia long bone volume increase versus saline controls ([1]; 0.5 mg/kg (C)): 13% | percent change in tibia long bone volume increase versus saline controls ([1]; 2 mg/kg (B)): 40% | percent change in tibia long bone volume increase versus saline controls ([1]; 10 mg/kg (A)): 69% | increase in serum osteocalcin over baseline ([2]; 0.5 mg/kg (C), also printed as 4%): 0.04 | increase in serum osteocalcin over baseline ([2]; 2 mg/kg (B), also printed as 24%): 0.24 | increase in serum osteocalcin over baseline ([2]; 10 mg/kg (A), also printed as 27%): 0.27
